This note sets out measurements from ChEMBL document CHEMBL4414611, “Hypascyrins A-E, Prenylated Acylphloroglucinols from Hypericum ascyron” (2019).

In general, MIC50 refers to the lowest concentration that inhibits either 50% of growth or 50% of the strains tested, depending on the study. One may read the MIC as the lowest concentration that inhibits growth of the organism.

What all share (type): functional
The test system of assay [1] is Escherichia coli. Put plainly: Antibacterial activity against Escherichia coli assessed as reduction in bacterial growth incubated for 20 hrs by broth microdilution assay.
Assay [2] concerns Staphylococcus aureus. The experiment in a line: Antibacterial activity against methicillin resistant Staphylococcus aureus assessed as reduction in bacterial growth incubated for 20 hrs by broth microdilution assay.
For assay [3], the system named is Staphylococcus aureus. Put plainly: Antibacterial activity against methicillin susceptible Staphylococcus aureus assessed as reduction in bacterial growth incubated for 20 hrs by broth microdilution assay.
Assay [4] deals with Bacillus subtilis. The experiment in a line: Antibacterial activity against Bacillus subtilis assessed as reduction in bacterial growth incubated for 20 hrs by broth microdilution assay. (In general: Broth dilution looks for growth in wells or tubes with falling amounts of substance.)

In brackets after ≈: the same amount, converted by molar mass. A value given as a limit tells only on which side of the number the result lay.

Take `CCC(C)C(=O)C1=C(O)C([C@@H]2C=C(C(C)C)CC[C@]2(C)O)=C(O)C(CC=C(C)C)(CC=C(C)C)C1=O` (stereo partly specified): the MIC50 in assay [1] is greater than 64 µM; in assay [2], 8 µM (≈ 3.99 µg/mL); in assay [3], 8 µM (≈ 3.99 µg/mL). In addition, the MIC in assay [3] is 4 to 8 µM (≈ 1.99 to 3.99 µg/mL); in assay [4], 4 µM (≈ 1.99 µg/mL).
As to `C=C(C)[C@@H]1CC[C@](C)(O)[C@H](C2=C(O)C(CC=C(C)C)(CC=C(C)C)C(=O)C(C(=O)CC(C)C)=C2O)C1`, the MIC50 is greater than 64 µM in assay [1], 2 µM (≈ 0.997 µg/mL) in assay [2] and 2 µM (≈ 0.997 µg/mL) in assay [3]. Also, the MIC in assay [3] was 1 to 2 µM (≈ 0.499 to 0.997 µg/mL); in assay [4], 2 µM (≈ 0.997 µg/mL).
With `CC(C)=CCC1(CC=C(C)C)C(=O)C(C(=O)CC(C)C)=C(O)C([C@@H]2C=C(C(C)C)CC[C@]2(C)O)=C1O`, the results for the MIC50 in assay [1], in assay [2] and in assay [3] were greater than 64 µM, 4 µM (≈ 1.99 µg/mL) and 4 µM (≈ 1.99 µg/mL), respectively. Further, the figures for the MIC in assay [2], in assay [3] and in assay [4] were 4 to 8 µM (≈ 1.99 to 3.99 µg/mL), 4 µM (≈ 1.99 µg/mL) and 4 µM (≈ 1.99 µg/mL), respectively.
